Key:
Experiment in all cases: Test F pre/postemergence
Type in all cases: in vivo
[1] = system: dandelion (Taraxacum officinale)
Source text: (§1) Seeds or nutlets of plant species selected from (turf) bermudagrass (Cynodon dactylon), Kentucky bluegrass (Poa pratensis), bentgrass (Agrostis palustris), hard fescue (Festuca ovina), large crabgrass (Digitaria sanguinalis), goosegrass (Eleusine indica), dallisgrass (Paspalum dilatatum), annual bluegrass (Poa annua), common chickweed (Stellaria media), dandelion (Taraxacum officinale), white clover (Trifolium repens), and yellow nutsedge (Cyperus esculentus) were planted and treated preemergence with the test chemical formulated in a non-phytotoxic solvent mixture which included a surfactant.
(§2) At the same time, plants selected from these crop and weed species were treated with postemergence applications of the test chemical formulated in the same manner. Plants ranged in height from 2 to 18 cm (1- to 4-leaf stage) for postemergence treatments. Treated plants and controls were maintained in a greenhouse for 12 to 14 days, after which time all species were compared to controls and visually evaluated. Plant response ratings, summarized in Table F, are based on a scale of 0 to 100 where 0 is no effect and 100 is complete control. A dash (-) response means no test result.

[2] = system: dallisgrass (Paspalum dilatatum)
Source text: as §1, §2

[3] = system: annual bluegrass (Poa annua)
Source text: as §1, §2

[4] = system: (turf) bermudagrass (Cynodon dactylon)
Source text: as §1, §2

[5] = system: large crabgrass (Digitaria sanguinalis)
Source text: as §1, §2

[6] = system: bentgrass (Agrostis palustris)
Source text: as §1, §2

[7] = system: white clover (Trifolium repens)
Source text: as §1, §2

[8] = system: goosegrass (Eleusine indica)
Source text: as §1, §2

[9] = system: hard fescue (Festuca ovina)
Source text: as §1, §2

[10] = system: Kentucky bluegrass (Poa pratensis)
Source text: as §1, §2

[11] = system: common chickweed (Stellaria media)
Source text: as §1, §2

[12] = system: yellow nutsedge (Cyperus esculentus)
Source text: as §1, §2

Measured: Plant response rating (0 to 100 scale)

CCOC(=O)c1nc(C2CC2)nc(N)c1Br [Compound 1, ethyl 6-amino-5-bromo-2-cyclopropyl-4-pyrimidinecarboxylate]
35: [1]; Preemergence, 31 g ai/ha | [2]; Preemergence, 62 g ai/ha | [3]; Postemergence, 31 g ai/ha | [8]; Postemergence, 125 g ai/ha
60: [2]; Postemergence, 500 g ai/ha | [6]; Preemergence, 62 g ai/ha | [6]; Preemergence, 125 g ai/ha | [9]; Preemergence, 62 g ai/ha | [9]; Preemergence, 125 g ai/ha | [9]; Preemergence, 250 g ai/ha
25: [12]; Preemergence, 250 g ai/ha
0: [2]; Postemergence, 31 g ai/ha | [2]; Postemergence, 62 g ai/ha | [4]; Postemergence, 31 g ai/ha | [5]; Postemergence, 31 g ai/ha | [6]; Postemergence, 31 g ai/ha | [9]; Postemergence, 31 g ai/ha | [9]; Postemergence, 62 g ai/ha | [9]; Postemergence, 125 g ai/ha | [9]; Postemergence, 250 g ai/ha | [9]; Postemergence, 500 g ai/ha | [10]; Postemergence, 62 g ai/ha | [10]; Postemergence, 125 g ai/ha | [10]; Postemergence, 250 g ai/ha | [10]; Preemergence, 31 g ai/ha | [11]; Postemergence, 31 g ai/ha | [12]; Postemergence, 31 g ai/ha | [12]; Preemergence, 31 g ai/ha
10: [2]; Preemergence, 31 g ai/ha | [4]; Preemergence, 31 g ai/ha | [8]; Postemergence, 62 g ai/ha | [12]; Postemergence, 62 g ai/ha | [12]; Postemergence, 125 g ai/ha
75: [1]; Postemergence, 62 g ai/ha | [1]; Postemergence, 125 g ai/ha | [2]; Postemergence, 250 g ai/ha | [5]; Postemergence, 250 g ai/ha
65: [3]; Preemergence, 62 g ai/ha | [8]; Preemergence, 250 g ai/ha
30: [6]; Postemergence, 62 g ai/ha | [8]; Preemergence, 31 g ai/ha | [8]; Preemergence, 125 g ai/ha | [10]; Postemergence, 500 g ai/ha | [10]; Preemergence, 62 g ai/ha | [10]; Preemergence, 125 g ai/ha | [12]; Preemergence, 125 g ai/ha
70: [2]; Preemergence, 250 g ai/ha | [3]; Postemergence, 250 g ai/ha | [3]; Preemergence, 250 g ai/ha | [3]; Preemergence, 500 g ai/ha | [4]; Postemergence, 500 g ai/ha | [5]; Postemergence, 125 g ai/ha | [6]; Postemergence, 500 g ai/ha | [7]; Postemergence, 31 g ai/ha | [12]; Preemergence, 500 g ai/ha
45: [2]; Preemergence, 125 g ai/ha | [3]; Postemergence, 125 g ai/ha | [3]; Preemergence, 125 g ai/ha | [5]; Postemergence, 62 g ai/ha
5: [8]; Postemergence, 31 g ai/ha
100: [1]; Preemergence, 125 g ai/ha | [1]; Preemergence, 250 g ai/ha | [1]; Preemergence, 500 g ai/ha | [5]; Preemergence, 500 g ai/ha | [6]; Preemergence, 500 g ai/ha | [7]; Postemergence, 125 g ai/ha | [7]; Postemergence, 250 g ai/ha | [7]; Postemergence, 500 g ai/ha | [7]; Preemergence, 62 g ai/ha | [7]; Preemergence, 125 g ai/ha | [7]; Preemergence, 250 g ai/ha | [7]; Preemergence, 500 g ai/ha | [11]; Postemergence, 500 g ai/ha | [11]; Preemergence, 62 g ai/ha | [11]; Preemergence, 125 g ai/ha | [11]; Preemergence, 250 g ai/ha | [11]; Preemergence, 500 g ai/ha
90: [4]; Preemergence, 500 g ai/ha | [5]; Postemergence, 500 g ai/ha | [6]; Preemergence, 250 g ai/ha | [7]; Postemergence, 62 g ai/ha | [9]; Preemergence, 500 g ai/ha
20: [3]; Preemergence, 31 g ai/ha | [4]; Postemergence, 62 g ai/ha | [10]; Postemergence, 31 g ai/ha
80: [4]; Preemergence, 250 g ai/ha | [7]; Preemergence, 31 g ai/ha | [10]; Preemergence, 500 g ai/ha | [11]; Postemergence, 62 g ai/ha | [11]; Preemergence, 31 g ai/ha
50: [1]; Postemergence, 31 g ai/ha | [4]; Postemergence, 250 g ai/ha | [4]; Preemergence, 125 g ai/ha | [6]; Postemergence, 125 g ai/ha | [6]; Postemergence, 250 g ai/ha | [6]; Preemergence, 31 g ai/ha | [8]; Postemergence, 500 g ai/ha | [9]; Preemergence, 31 g ai/ha
15: [2]; Postemergence, 125 g ai/ha | [5]; Preemergence, 31 g ai/ha | [12]; Postemergence, 250 g ai/ha | [12]; Postemergence, 500 g ai/ha | [12]; Preemergence, 62 g ai/ha
40: [4]; Postemergence, 125 g ai/ha | [4]; Preemergence, 62 g ai/ha | [5]; Preemergence, 62 g ai/ha | [8]; Postemergence, 250 g ai/ha | [8]; Preemergence, 62 g ai/ha | [10]; Preemergence, 250 g ai/ha
85: [1]; Postemergence, 250 g ai/ha | [5]; Preemergence, 125 g ai/ha | [8]; Preemergence, 500 g ai/ha | [11]; Postemergence, 125 g ai/ha | [11]; Postemergence, 250 g ai/ha
95: [1]; Postemergence, 500 g ai/ha | [1]; Preemergence, 62 g ai/ha | [2]; Preemergence, 500 g ai/ha | [3]; Postemergence, 500 g ai/ha | [5]; Preemergence, 250 g ai/ha

Reference: US8802597B2, “Herbicidal pyrimidines” (E I du Pont de Nemours and Company, priority 2003, dated 2014)
